The subject of assay [1] is washed platelet. The assay is described as follows: Inhibition of platelet aggregation caused by collagen (washed platelet, aggregometer). In kind it is cell-based, male rat (Sprague-Dowley). Conditions: 0.05 h; platelet aggregating agent: collagen, 4 μg/ml final; rat washed platelet, 37° C.; measured 3 minutes after adding agent; read-out: Inhibition of Platelet Aggregation [50% Inhibitory Concentration]. The method, then:
From the abdominal artery of a male rat (Sprague-Dowley, 8 weeks old) was collected 10 ml of blood with a syringe containing 1.5 ml of ACD (85 mM sodium citrate, 70 mM citric acid, 110 mM glucose) and 20 μg of prostaglandin E1. The blood is placed in a plastic test tube, mixed by moderate turning and centrifuged for 10 minutes at 160×g to give platelet rich plasma (PRP). To the prepared PRP was added apyrase (25 μg/ml) and the mixture was layered on 40% bovine serum albumin. The resulting mixture is centrifuged at 1200×g for 25 minutes. The platelet pellet suspended in a small amount of a buffer (137 mM NaCl, 2.7 mM KCl, 1.0 mM MgCl2, 3.8 mM NaH2 PO4, 3.8 mM Hepes, 5.6 mM glucose, 0.035% bovine serum albumin, pH 7.35) was applied on 10 ml of Sepharose 2B column and eluted with the buffer to prepare a washed platelet.
The platelet aggregation reaction was measured by an aggregometer (NKK HEMA TRACER 1 MODEL PAT-6A·6M, Niko bioscience). In a measuring cuvette was placed 245 μl of the washed platelet of which platelet number was adjusted to 5×10^5 /μl and set in the aggregometer. The washed platelet was stirred (1000 rpm) at 37° C. and 3.8 μl of 0.1M of CaCl2 was added thereto. One minutes after, 0.5 μl of a solution of test compound (dimethylsulfoxide solution) was added and 2 minutes after, 1 μl of Collagen reagent Horm® [HORMON-CHEMIE Munchen GMBH, final concentrate 4 μg/ml) as a platelet aggregating agent was added. The change in light transmittance caused by platelet aggregation was recorded against time elasped.
50% aggregation inhibitory rate was calculated from the aggregation inhibitory rate (which was measured 3 minutes after adding a platelet aggregating agent). The light transmittance for the washed platelet and the buffer were setted at 0% and 100%, respectively.

Assay [2] deals with platelet; smooth muscle of bronchi, and of coronary, cerebral and pulmonary arteries. The settings on record: "it is said that"; prior art; cited from earlier work.

Regarding `CC1(C)[C@H]2C[C@H](C/C=C\CCCC(=O)O)[C@H](NS(=O)(=O)c3ccccc3)[C@@H]1C2` [Compound 7a-a], the IC50 in assay [1] was found to be 11 nM. The same measure, in the same setting: with `Cc1ccc(S(=O)(=O)N[C@H]2[C@@H](C/C=C\CCCC(=O)O)C[C@H]3C[C@@H]2C3(C)C)cc1` [Compound 7a-b] the figure was 115 nM; with `CC1(C)[C@H]2C[C@H](C/C=C\CCCC(=O)O)[C@@H](NS(=O)(=O)c3ccccc3)[C@@H]1C2` [Compound 7b-a], 0.7 nM; with `Cc1ccc(S(=O)(=O)N[C@@H]2[C@@H](C/C=C\CCCC(=O)O)C[C@H]3C[C@@H]2C3(C)C)cc1` [Compound 7b-b], 1.7 nM. Consider `CC1(C)[C@H]2C[C@H](C/C=C\CCCC(=O)O)[C@@H](NS(=O)(=O)c3ccc(Cl)cc3)[C@@H]1C2` [Compound 7b-d], for which the IC50 in assay [1] came out at 5.3 nM. The same measure, in the same setting: the result for `CC1(C)[C@H]2C[C@H](C/C=C\CCCC(=O)O)[C@@H](NS(=O)(=O)c3ccccc3Cl)[C@@H]1C2` [Compound 7b-e] reads 6.4 nM.

For the compound `CC1(C)[C@H]2C[C@H](C/C=C\CCCC(=O)O)[C@@H](NS(=O)(=O)c3cccc(Cl)c3)[C@@H]1C2` [Compound 7b-f], the IC50 in assay [1] stood at 1.3 nM. Same read-out and setting: the result for `CCc1ccc(S(=O)(=O)N[C@@H]2[C@@H](C/C=C\CCCC(=O)O)C[C@H]3C[C@@H]2C3(C)C)cc1` [Compound 7b-g] reads 9.9 nM; that for `CC1(C)[C@H]2C[C@H](C/C=C\CCCC(=O)O)[C@@H](NS(=O)(=O)c3ccc([N+](=O)[O-])cc3)[C@@H]1C2` [Compound 7b-h], 26 nM. Same read-out and setting: with `COc1ccc(S(=O)(=O)N[C@@H]2[C@@H](C/C=C\CCCC(=O)O)C[C@H]3C[C@@H]2C3(C)C)cc1` [Compound 7b-i] the figure was 3.4 nM; with `CC1(C)[C@H]2C[C@H](C/C=C\CCCC(=O)O)[C@@H](NS(=O)(=O)c3ccc(O)cc3)[C@@H]1C2` [Compound 7b-k], 1.8 nM. As for `CC1(C)[C@H]2C[C@H](C/C=C\CCCC(=O)O)[C@@H](NS(=O)(=O)c3ccc(-c4ccccc4)cc3)[C@@H]1C2` [Compound 7b-l], the IC50 in assay [1] was determined as 9.9 nM.

With `CC1(C)[C@H]2C[C@H](C/C=C\CCCC(=O)O)[C@@H](NS(=O)(=O)c3ccc4ccccc4c3)[C@@H]1C2` [Compound 7b-m], in assay [1], the IC50 came out at 4.3 nM. `CC1(C)[C@H]2C[C@H](C/C=C\CCCC(=O)O)[C@@H](NS(C)(=O)=O)[C@@H]1C2` [Compound 7b-n]: the IC50 in assay [1] worked out at 480 nM. Still for that read-out and setting: the result for `CC1(C)[C@H]2C[C@H](C/C=C\CCCC(=O)O)[C@@H](NS(=O)(=O)Cc3ccccc3)[C@@H]1C2` [Compound 7b-o] reads 240 nM; that for `CC1(C)[C@H]2C[C@H](C/C=C\CCCC(=O)O)[C@@H](NS(=O)(=O)CCc3ccccc3)[C@@H]1C2` [Compound 7b-p], 13 nM. Still for that read-out and setting: the result for `CC1(C)[C@H]2C[C@H](C/C=C\CCCC(=O)O)[C@@H](NS(=O)(=O)CCCc3ccccc3)[C@@H]1C2` [Compound 7b-q] reads 12 nM; that for `CC1(C)[C@H]2C[C@@H](C/C=C\CCCC(=O)O)[C@@H](NS(=O)(=O)c3ccccc3)[C@@H]1C2` [Compound 7d-a], 37 nM; that for `CC1(C)[C@H]2C[C@H](C/C=C/CCCC(=O)O)[C@@H](NS(=O)(=O)c3ccccc3)[C@@H]1C2` [Compound 10b-a], 1.4 nM. On the same count and under the same terms, with `CC1(C)C2CC(NCC(O)Cc3ccccc3)C(C/C=C\CCCC(=O)O)C1C2` (stereo not drawn) [ONO-11120, reference compound] the figure was 115 nM. Turning to `CCCCC[C@H](O)/C=C/[C@H]1O[C@H]2C[C@H](O2)[C@@H]1C/C=C\CCCC(=O)O` [thromboxane A2], the “concentration at which the strong action occurs” value in assay [2] is 10^-10 to 10^-11 M.
